The text below walks through data of ChEMBL document CHEMBL3046616, “Design, synthesis, and biological activities of milbemycin analogues” (2011).

Values after ≈ are worked out from the molar mass of the structure shown.

Type in all cases: functional
Experiment [1] relates to Aphis fabae. The experiment in a line: Insecticidal activity against Aphis fabae (black bean aphid) infested soybean tender shoots at 1 mg/L measured 48 hr post compound dose by modified FAO dip method.
Experiment [2] concerns Aphis fabae. Nature of the experiment: Insecticidal activity against Aphis fabae (black bean aphid) infested soybean tender shoots at 0.5 mg/L measured 48 hr post compound dose by modified FAO dip method.
Experiment [3] deals with Aphis fabae. The experiment in a line: Insecticidal activity against Aphis fabae (black bean aphid) infested soybean tender shoots at 10 mg/L measured 48 hr post compound dose by modified FAO dip method.
Experiment [4] relates to Mythimna separata. Nature of the experiment: Insecticidal activity against Mythimna separata (Oriental armyworm) fourth-instar larvae reared compound pre-treated corn leaves assessed as insect mortality measured 2 days post compound dose.
The subject of experiment [5] is Mythimna separata. Nature of the experiment: Insecticidal activity against fourth-instar larvae of Mythimna separata (Oriental armyworm) reared on compound pre-treated corn leaves assessed as insect mortality at 0.125 mg/L measured 2 days post compound dose.
The test system of experiment [6] is Aphis fabae. The experiment in a line: Insecticidal activity against Aphis fabae (black bean aphid) infested soybean tender shoots at 0.0625 mg/L measured 48 hr post compound dose by modified FAO dip method.
Experiment [7] has as its system Mythimna separata. The experiment in a line: Insecticidal activity against fourth-instar larvae of Mythimna separata (Oriental armyworm) reared on compound pre-treated corn leaves assessed as insect mortality at 0.0625 mg/L measured 2 days post compound dose.
The subject of experiment [8] is Mythimna separata. The experiment in a line: Insecticidal activity against Mythimna separata (Oriental armyworm) fourth-instar larvae reared compound pre-treated corn leaves assessed as insect mortality at 1 mg/L measured 2 days post compound dose.
The test system of a further experiment is Tetranychus cinnabarinus. Nature of the experiment: Insecticidal activity against Tetranychus cinnabarinus (carmine spider mite) […] assessed as larvicidal activity at 0.006 mg/L after 48 hr.
Experiment [9] relates to Aphis fabae. Nature of the experiment: Insecticidal activity against Aphis fabae (black bean aphid) infested soybean tender shoots at 0.25 mg/L measured 48 hr post compound dose by modified FAO dip method.
Experiment [10] has as its system Mythimna separata. The experiment in a line: Insecticidal activity against Mythimna separata (Oriental armyworm) fourth-instar larvae reared compound pre-treated corn leaves assessed as insect mortality at 0.25 mg/L measured 2 days post compound dose.
Experiment [11] relates to Mythimna separata. The experiment in a line: Insecticidal activity against Mythimna separata (Oriental armyworm) fourth-instar larvae reared compound pre-treated corn leaves assessed as insect mortality at 10 mg/L measured 2 days post compound dose.
Experiment [12] relates to Mythimna separata. The experiment in a line: Insecticidal activity against fourth-instar larvae of Mythimna separata (Oriental armyworm) reared on compound pre-treated corn leaves assessed as insect mortality at 0.03125 mg/L measured 2 days post compound dose.
Experiment [13] relates to Aphis fabae. The experiment in a line: Insecticidal activity against Aphis fabae (black bean aphid) infested soybean tender shoots at 0.125 mg/L measured 48 hr post compound dose by modified FAO dip method.
In experiment [14] the test system is Mythimna separata. The experiment in a line: Insecticidal activity against Mythimna separata (Oriental armyworm) fourth-instar larvae reared compound pre-treated corn leaves assessed as insect mortality at 0.5 mg/L measured 2 days post compound dose.
In experiment [15] the test system is Aphis fabae. Nature of the experiment: Insecticidal activity against Aphis fabae (black bean aphid infested soybean tender shoots measured 48 hr post compound dose by modified FAO dip method.
Experiment [16] deals with Aphis fabae. Nature of the experiment: Insecticidal activity against Aphis fabae (black bean aphid) infested soybean tender shoots at 2 mg/L measured 48 hr post compound dose by modified FAO dip method.
Experiment [17] has as its system Aphis fabae. The experiment in a line: Insecticidal activity against bean Aphis fabae (black bean aphid) infested soybean tender shoots at 0.03125 mg/L measured 48 hr post compound dose by modified FAO dip method.

The mortality is the percentage killed. As a reminder, the LC50 is the concentration lethal to half of the exposed cells or organisms.

For `CCC(C)[C@H]1O[C@]2(CC[C@@H]1C)C[C@@H]1C[C@@H](C/C=C(\C)[C@@H](OC(=O)C(C)(C)CC)[C@@H](C)/C=C/C=C3\CO[C@@H]4[C@H](O)C(C)=C[C@@H](C(=O)O1)[C@]34O)O2` (some centres undefined), the results for the mortality at 1 µg/mL in the experiment on Aphis fabae [1] and with Mythimna separata [8] were 85.4% and 96.9%, respectively. In addition, the mortality at 0.5 µg/mL in the experiment with Aphis fabae [2] worked out at 68.2%; in the experiment on Mythimna separata [14], 75.2%. Also, the mortality at 10 µg/mL in the experiment on Aphis fabae [3] and with Mythimna separata [11] was 100% in each case. For the same compound, the 50% lethal concentration (LC50) in the experiment on Mythimna separata [4] stood at 0.25 µg/mL (≈ 0.365 µM); with Aphis fabae [15] (Aphis fabae, 48 h), 0.15 µg/mL (≈ 0.219 µM). For the same compound, the values for the mortality at 0.125 µg/mL in the experiment with Mythimna separata [5] and in the experiment on Aphis fabae [13] were 16.7% and 45.5%, respectively. The figures for the mortality at 0.0625 µg/mL in the experiment with Aphis fabae [6] and in the experiment on Mythimna separata [7] were 38% and 0%, respectively. For the same compound, the mortality at 0.006 µg/mL in the experiment with Tetranychus cinnabarinus is 60.7%. The results for the mortality at 0.25 µg/mL with Aphis fabae [9] and in the experiment with Mythimna separata [10] were 57.6% and 60%, respectively. For the same compound, the mortality at 0.03125 µg/mL in the experiment on Mythimna separata [12] is 0%. Besides, in the experiment with Aphis fabae [16], the mortality at 2 µg/mL came out at 92.9%.
Turning to IVERMECTIN, the mortality stood at 93.5% in the experiment on Aphis fabae [1]; 89.1% with Aphis fabae [2]; 29.1% in the experiment with Mythimna separata [5]; 53.6% in the experiment with Aphis fabae [6]; 6.4% in the experiment with Mythimna separata [7]; 100% in the experiment with Mythimna separata [8]. The mortality in the experiment on Tetranychus cinnabarinus turned out to be 57.9%; in the experiment with Aphis fabae [9], 74.1%; in the experiment on Mythimna separata [10] it was 66.7%; with Mythimna separata [12] it was 0%; in the experiment on Aphis fabae [13], 66.3%; with Mythimna separata [14], 90.9%. Besides, in the experiment on Aphis fabae [16], the mortality came out at 100%. In addition, the values for the LC50 with Mythimna separata [4] and with Aphis fabae [15] were 0.19 µg/mL and 0.06 µg/mL, respectively. In the experiment on Aphis fabae [15], this compound displayed an LC90 of 0.646 mg/L.
On to `CCC(C)[C@H]1O[C@]2(CC[C@@H]1C)C[C@@H]1C[C@@H](C/C=C(\C)[C@@H](O[C@H]3C[C@H](OC)[C@@H](OC(=O)Cc4ccccc4)[C@H](C)O3)[C@@H](C)/C=C/C=C3\CO[C@@H]4[C@H](O)C(C)=C[C@@H](C(=O)O1)[C@]34O)O2` (some centres undefined), for which the mortality at 1 µg/mL in the experiment on Aphis fabae [1] and with Mythimna separata [8] was 100% each time. For the same compound, the mortality at 0.5 µg/mL with Aphis fabae [2] came to 86.7%; in the experiment with Mythimna separata [14], 90.2%. For the same compound, the median lethal concentration (LC50) in the experiment on Mythimna separata [4] was determined as 0.204 µg/mL (≈ 0.24 µM); in the experiment on Aphis fabae [15] (Aphis fabae, 48 h), 0.07 µg/mL (≈ 0.0824 µM). Also, the values for the mortality at 0.125 µg/mL in the experiment with Mythimna separata [5] and with Aphis fabae [13] were 20.5% and 31.2%, respectively. The mortality at 0.0625 µg/mL in the experiment on Aphis fabae [6] was 3.3%; in the experiment on Mythimna separata [7] it was 10.1%. Besides, the mortality at 0.03125 µg/mL in the experiment with Aphis fabae [17] and in the experiment with Mythimna separata [12] was 0% in each case. Further, the mortality at 0.006 µg/mL with Tetranychus cinnabarinus came out at 14.3%. For the same compound, the mortality at 0.25 µg/mL was 65.8% with Aphis fabae [9] and 60.3% in the experiment with Mythimna separata [10]. Moreover, in the experiment with Aphis fabae [15], the LC90 came to 0.742 mg/L (≈ 0.874 µM).
